The results in this text go back to the OPERA property sets (Mansouri et al. 2018).

Where a SMILES comes first, the peptide text is derived from it.

What is called logP is the decadic logarithm of the partition coefficient of the neutral form, usually between octanol and water. A low value points to a more hydrophilic compound. `NC(=O)c1cccc2nc(N)nc(N)c12` gave a logP of -0.33.
In the case of `COc1cccc2c1C(=O)c1c(O)c3c(c(O)c1C2=O)CC(O)(C(=O)CO)CC3OC1CC(N(C)C)C(O)C(C)O1` (stereo not drawn) it was 1.28; in that of `Cc1nc2ccccc2c(=O)n1CC(=O)N1CCOCC1`, 0.36; in that of `NC(Cc1c[nH]c2ccccc12)C(=O)NC(Cc1ccccc1)C(=O)O` (stereo not drawn), -0.47.
Compound `CCCc1cccc(CNc2[nH]cnc3ncnc2-3)c1` gave a logP of 3.53.
In the case of `CCCN(CCCCC(NC(C)=O)C(=O)NCc1ccccc1)C(=O)N(CCCl)N=O` (stereo not drawn) it was 1.99.
Next, `Cc1cc2c(ccc3cc(C)c(=O)oc32)o1`: 2.97.
Next, `Cc1coc2nc3oc(=O)ccc3c(C)c12`: 1.71; `Oc1cc(O)c2c(c1)OC(c1ccc(O)c(O)c1)C(OCCCc1ccccc1)C2` (stereo not drawn): 3.78.
Compound `CC(C)C(=O)OCC1OC(n2cc(I)c(=O)[nH]c2=O)CC1O` (stereo not drawn) yielded a logP of 0.84.
In the case of `CCOP(=O)(OCC)C(C)(C)[N+]([O-])=Cc1ccccn1` it was 0.68; in that of `COC(=O)C(C)NP(=O)(OCC1C=CC(n2cc(C)c(=O)[nH]c2=O)O1)Oc1ccc(F)cc1` (stereo not drawn), 1.1.
In the case of `CCNN=Nc1ccc(C(N)=O)cc1` it was 1.19; in that of `CC(C)NC(=NC#N)NS(=O)(=O)c1cnccc1Nc1cccc(F)c1`, 1.59; in that of `Cc1ccccc1Cc1c[nH]cn1`, 2.31.
In the case of `NC1=NCC(CN2CC=CCC2)O1` (stereo not drawn) it was 0.19; in that of `CC(=O)NCCC(=O)NCc1c(O)c(=O)cc(C)n1C`, -1.7; in that of `O=c1nc2[nH]nc(-c3ccccc3)cc-2c(=O)[nH]1`, 1.56.
Regarding `Cc1cccc2nc(N)nc(N)c12`, the logP worked out at 1.26.
Next, `CN(c1nc2ccccc2s1)C1CCN(CCCCOc2ccc(F)cc2)CC1`: 5.37; `CCCOc1cccc(CNc2[nH]cnc3ncnc2-3)c1`: 3.12.
`OCC1OC(n2cnc3c(NCCCCc4ccccc4)ncnc32)C(O)C1O` (stereo not drawn) displayed a log partition coefficient (logP) of 2.29.
Next, `CN1CC(O)N(C(=O)NC2CCCCC2)C1=O` (stereo not drawn): 1.87.
Next, `COc1ccc(SC)cc1CNC1CCCNC1c1ccccc1` (stereo not drawn): 3.7; `CN(C(=O)CO)c1c(I)c(C(=O)NCC(O)CO)c(I)c(C(=O)NCC(O)CO)c1I` (stereo not drawn): -2.79.
Next, `O=C(Cc1ccccc1)OC1Cc2c(O)cc(O)cc2OC1c1ccc(O)c(O)c1` (stereo not drawn): 3.09; `NCC(=O)NC(Cc1ccccc1)C(=O)NC(Cc1ccccc1)C(=O)O` (stereo not drawn) (H-Gly-Phe-Phe-OH; configuration not given here): -1.33.
With `Cc1ccccc1C=[N+]([O-])C(C)(C)C`, the lipophilicity (logP) came out at 1.5.
Next, `O=C(O)Cc1cc(O)ccc1Nc1c(Cl)cccc1Cl`: 3.94; `COc1ccc([N+](=O)[O-])c(C)c1`: 2.32; `CCOc1ccc(-n2nnnc2N)cc1`: 1.32.
Next, `COCC(O)Cn1c([N+](=O)[O-])nc(Br)c1Br` (stereo not drawn): 1.02; `CN1COCc2c1ccc1cc3ccc4c(c3nc21)COC(=O)N4`: 1.7.
Next, `Cn1nc(C(F)(F)F)n(-c2ccccc2)c1=S`: 2.58; `COC(=O)c1c(N2CCOCC2)c(-c2ccc(Cl)cc2)cn1C(C)=O`: 3.5.
Regarding `O=C1c2ccccc2-c2cc([N+](=O)[O-])ccc21`, the logP came to 3.06.
Next, `CC1(C)C=[N+]([O-])C(C)(C)C1`: -0.15.
In the case of `CCOC(=O)c1ccc(N=NN(C)C(=O)OCOC(=O)C(C)NC(C)=O)cc1` (stereo not drawn) it was 2.73; in that of `Nc1nnnn1-c1cccc(O)c1`, 0.56; in that of `CCOC(=O)CC(C(=O)OC)S(=O)(=O)c1ccc([N+](=O)[O-])cc1` (stereo not drawn), 1.4.
For `CC(=O)c1ccc2ccc3cccc4ccc1c2c34`, the logP was determined as 4.18.
Next, `CCCc1c2c(cc3c(=O)cc(C(=O)O)oc13)CCCC2`: 4.2; `COc1nc(C)nc(Cl)c1NC1=NCCN1`: 0.9.
